pEC50: −log10 of the molar value.
Experiments:
[1] = target: human MC4R (Homo sapiens, UniProt P32245); experiment: Reporter Gene Assay (CHO-6×CRE-luc+ reporter cell lines, luciferase); assay type: cell-based; conditions: for pEC50: CHO-6×CRE-luc+ reporter cells expressing human MC4R, 4 h at 37° C., luciferase activity; for % of MSH / Emax: percentage of the fold stimulation in the NDP-αMSH control (1×10^−7 M NDP-αMSH), CHO-6×CRE-luc+ cells, human MC4R; for Emax: 4 h, read-out: % of MSH
Description: Reporter Gene Assay CHO-6×CRE-luc^+ reporter cell lines expressing human MC1R, MC3R, MC4R, and MC5R (GenBank accession numbers X65634, LO6155, S77415 and U08353) and the CHO host reporter gene cell line were propagated in complete medium in T225 flasks. Forty-eight hours prior to assay, cells were harvested with 2 ml of 0.05% trypsin, washed with complete medium and plated at a concentration of 4000 cells/well in complete medium. Sixteen hours prior to the assay, the medium was removed from the cells and replaced with 90 μl/well of serum-free DMEM/F12. At the time of the assay the compounds were added in a 10 μl volume and plates were incubated for 4 h at 37° C. in a cell culture incubator. The medium was aspirated followed by the addition of 50 μl of a 1:1 mixture of LucLiteTM and dPBS containing 1 mM CaCl2 and 1 mM MgCl2. The plates were then sealed and subjected to dark adaptation at room temperature for 10 min before luciferase activity was quantitated on a TopCountTM microplate scintillation counter (Packard) using 3 s/well count time. The NDP-αMSH and […]-5 concentration-response curve data were expressed as a percentage of the fold stimulation in the NDP-αMSH control for each receptor subtype. The control value is the average of duplicate wells treated with 1×10^-7 M NDP-αMSH.

Chain of human MC4R (P32245 whole entry): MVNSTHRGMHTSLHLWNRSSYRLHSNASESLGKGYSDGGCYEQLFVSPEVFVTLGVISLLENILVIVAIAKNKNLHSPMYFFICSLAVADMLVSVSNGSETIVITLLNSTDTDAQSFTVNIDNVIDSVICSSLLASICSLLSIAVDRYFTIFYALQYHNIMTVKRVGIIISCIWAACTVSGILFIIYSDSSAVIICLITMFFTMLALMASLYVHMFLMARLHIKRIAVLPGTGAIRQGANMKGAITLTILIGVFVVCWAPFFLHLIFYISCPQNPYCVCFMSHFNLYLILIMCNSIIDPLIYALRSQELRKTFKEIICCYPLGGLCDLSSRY

Row | Structure (SMILES) | pEC50 [1] | % of MSH [1] [%] | Emax [1] [%] | melting point [°C]
1 | COc1ccc(N(C(=O)CN2C(=O)C(Cc3n[nH]c4ccccc34)(OC)C(=O)N(c3cccnc3)c3ccccc32)C(C)C)cc1 (single isomer, unassigned) [Example 9, 2-[3-(1H-indazol-3-ylmethyl)-3-methoxy-2,4-dioxo-5-pyridin-3-yl-2,3,4,5-tetrahydro-1H-1,5-benzodiazepin-1-yl]-N-isopropyl-N-(4-methoxyphenyl)acetamide] | 6.80 | 68 | – | –
2 | O=C(CN1C(=O)C(Cc2n[nH]c3ccccc23)C(=O)N(c2ccccc2)c2ccccc21)N1CCCCc2ccccc21 (racemic) [Example 1, 3-(1H-indazol-3-ylmethyl)-1-[2-oxo-2-(2,3,4,5-tetrahydro-1H-1-benzazepin-1-yl)ethyl]-5-phenyl-1H-1,5-benzodiazepine-2,4(3H,5H)-dione] | 6.51 | – | 60 | –
3 | COc1ccc(N(C(=O)CN2C(=O)C(Cc3n[nH]c4ccccc34)(OC)C(=O)N(c3cccnc3)c3ccccc32)C(C)C)cc1 (single isomer, unassigned) [Example 10, 2-[3-(1H-indazol-3-ylmethyl)-3-methoxy-2,4-dioxo-5-pyridin-3-yl-2,3,4,5-tetrahydro-1H-1,5-benzodiazepin-1-yl]-N-isopropyl-N-(4-methoxyphenyl)acetamide] | 6.70 | 29 | – | –
4 | COc1ccc2c(c1)CCCCN2C(=O)CN1C(=O)C(Cc2n[nH]c3ccccc23)C(=O)N(c2ccccc2)c2ccccc21 (centres unmarked) [Example 2, 3-(1H-indazol-3-ylmethyl)-1-[2-(7-methoxy-2,3,4,5-tetrahydro-1H-1-benzazepin-1-yl)-2-oxoethyl]-5-phenyl-1H-1,5-benzodiazepine-2,4(3H,5H)-dione] | 6.54 | – | 42 | 215 to 230
5 | O=C(CN1C(=O)C(Cc2n[nH]c3cc(F)ccc23)C(=O)N(c2ccccc2)c2ccccc21)N1CCCCc2ccccc21 (centres unmarked) [Example 12, 3-[(6-fluoro-1H-indazol-3-yl)methyl]-1-[2-oxo-2-(2,3,4,5-tetrahydro-1H-1-benzazepin-1-yl)ethyl]-5-phenyl-1H-1,5-benzodiazepine-2,4(3H,5H)-dione] | 6.76 | – | 52 | –
6 | COc1ccc(N(C(=O)CN2C(=O)C(Cc3n[nH]c4ccccc34)(OC)C(=O)N(c3cccnc3)c3ccccc32)C(C)C)cc1 (racemic) [Example 8, 2-[3-(1H-indazol-3-ylmethyl)-3-methoxy-2,4-dioxo-5-pyridin-3-yl-2,3,4,5-tetrahydro-1H-1,5-benzodiazepin-1-yl]-N-isopropyl-N-(4-methoxyphenyl)acetamide] | 6.60 | – | 74 | –
7 | Cc1cc(C)c2c(c1)N(C(=O)CN1C(=O)[C@@H](Cc3n[nH]c4c3CCCC4)C(=O)N(c3ccccc3)c3ccccc31)CCCC2 [Example 6, (3R)-1-[2-(6,8-dimethyl-2,3,4,5-tetrahydro-1H-1-benzazepin-1-yl)-2-oxoethyl]-5-phenyl-3-(4,5,6,7-tetrahydro-1H-indazol-3-ylmethyl)-1H-1,5-benzodiazepine-2,4(3H,5H)-dione] | 6.59 | – | 35 | –
8 | COc1cccc2c1CCCCN2C(=O)CN1C(=O)[C@@H](Cc2n[nH]c3ccccc23)C(=O)N(c2ccccc2)c2ccccc21 [Example 5, (3R)-3-(1H-indazol-3-ylmethyl)-1-[2-(6-methoxy-2,3,4,5-tetrahydro-1H-1-benzazepin-1-yl)-2-oxoethyl]-5-phenyl-1H-1,5-benzodiazepine-2,4(3H,5H)-dione] | 6.55 | – | 44 | 186 to 214
9 | COc1cccc2c1CCCCN2C(=O)CN1C(=O)C(Cc2n[nH]c3ccccc23)C(=O)N(c2ccccc2)c2ccccc21 (racemic) [Example 4, 3-(1H-indazol-3-ylmethyl)-1-[2-(6-methoxy-2,3,4,5-tetrahydro-1H-1-benzazepin-1-yl)-2-oxoethyl]-5-phenyl-1H-1,5-benzodiazepine-2,4(3H,5H)-dione] | 6.75 | – | 45 | –
10 | COc1cccc2c1CCCCN2C(=O)CN1C(=O)[C@@H](Cc2n[nH]c3c2CCCC3)C(=O)N(c2ccccc2)c2ccccc21 [Example 7, (3R)-1-[2-(6-methoxy-2,3,4,5-tetrahydro-1H-1-benzazepin-1-yl)-2-oxoethyl]-5-phenyl-3-(4,5,6,7-tetrahydro-1H-indazol-3-ylmethyl)-1H-1,5-benzodiazepine-2,4(3H,5H)-dione] | 6.80 | – | 41 | –
11 | COC1(Cc2n[nH]c3ccccc23)C(=O)N(CC(=O)N2CCCCc3ccccc32)c2ccccc2N(c2ccccc2)C1=O (centres unmarked) [Example 11, 3-(1H-indazol-3-ylmethyl)-3-methoxy-1-[2-oxo-2-(2,3,4,5-tetrahydro-1H-1-benzazepin-1-yl)ethyl]-5-phenyl-1H-1,5-benzodiazepine-2,4(3H,5H)-dione] | 6.95 | – | 59 | –
12 | Cc1cc(C)c2c(c1)N(C(=O)CN1C(=O)C(Cc3n[nH]c4ccccc34)C(=O)N(c3ccccc3)c3ccccc31)CCCC2 (racemic) [Example 3, 1-[2-(6,8-dimethyl-2,3,4,5-tetrahydro-1H-1-benzazepin-1-yl)-2-oxoethyl]-3(1H-indazol-3-ylmethyl)-5-phenyl-1H-1,5-benzodiazepine-2,4(3H,5H)-dione] | 7.22 | – | 47 | –
